In patent US20260284043A1, “COMPOUNDS FOR UPREGULATING UTROPHIN LEVELS IN MUSCLE CELLS AND METHOD OF APPLICATION THEREOF” (Peptris Technologies Private Limited, priority 2023, published 2026):

How the values were obtained:
Utrophin = Utrophin upregulation (mRNA fold change, RT-PCR) in differentiated C2C12 myoblast cells; assay type: cell-based, mouse; settings: 24 hours; for fold change of utrophin: C2C12 myoblast cells differentiated seven days, 10 μM, FIG. 1
Experimental: C2C12 myoblast cells are seeded in the well plate with a growth medium (10% FBS and DMEM). After they reached 70% confluence, the cells are added to the differentiation medium (2% HS and DMEM) and differentiated for seven days. Stock solutions are prepared for Sitagliptin and other DPP-IV inhibitors viz., Melogliptin, Linagliptin, Vildagliptin, and Teneligliptin in DMSO. The cells are treated with a final concentration of 10 μM stock solution for 24 hours. RNA isolation is carried out using the Qiagen assay kit and quantified using NanodropRT-PCR for Utrophin Upregulation.
Using the same protocol for Example 1, C2C 12 myoblast cells are treated with sitagliptin for 24 hours. Ezutromid is a known utrophin up-regulator and used as a positive control. RNA isolation and RT-PCR are done to quantify the fold change in utrophin mRNA expression. FIG. 2 presents the fold change in mRNA expression of Utrophin on C2C12 mouse skeletal muscle myoblasts at 10 uM sitagliptin compared to 10 uM Ezutromid.

D2.mdx mice [1] = assay: Treadmill test in D2.mdx mice; assay type: in vivo, mouse; settings: 50 mg/kg p.o. q.d., 28 days, vs DMD-Control
Experimental: (§1) All the functional experimental parameters are evaluated in mdx background wild-type mice and in D2.mdx mice (D2.B10-DMD mdx/J mice procured from Jackson laboratories (Strain #013141), Bar Harbor, Maine (ME), USA 04609. The test item, Sitagliptin 50 mg/kg, is orally (p.o.) administered once daily (q.d.) at a dose volume of 10 mL/kg. Sitagliptin suspended in formulation containing 0.1% Tween 20 and 0.5% Carboxymethyl cellulose (CMC) is administered once daily for 28 days via the oral route. The wild-type control and mdx control groups received the vehicle (0.5% Carboxy methyl cellulose (CMC) containing 0.1% Tween 20) alone. Body weight of the study animals is recorded before the study (pre-dose) and twice weekly/daily throughout the study. Animals are also monitored for clinical signs, mortality, and morbidity. […] Muscle function is assessed through grip strength test using a Grip strength meter (Orchid Scientific, Model No.: […], India), hanging test, treadmill running, and rotarod test (Orchid Scientific, India) in response to Vehicle and Sitagliptin (50 mg/kg, p.o.) treatments. […] The efficacy of Sitagliptin is evaluated by comparing the functional test parameters and serum CK levels of the treated group with that of the mdx-control group in comparison to the basal value of Wild-type group. […]

D2.mdx mice [2] = assay: Hanging test in D2.mdx mice; assay type: in vivo, mouse; settings: 50 mg/kg p.o. q.d., irrespective of treadmill stress, compared with wild type mice, FIGS. 6A and 6B
Experimental: as §1

D2.mdx mice [3] = assay: Serum Creatinine Kinase level in D2.mdx mice after treadmill test; assay type: in vivo, mouse; settings: 50 mg/kg p.o. q.d., 28 days, measured within 30 minutes after treadmill test, FIG. 8
Experimental: All the functional experimental parameters are evaluated in mdx background wild-type mice and in D2.mdx mice (D2.B10-DMD mdx/J mice procured from Jackson laboratories (Strain #013141), Bar Harbor, Maine (ME), USA 04609. The test item, Sitagliptin 50 mg/kg, is orally (p.o.) administered once daily (q.d.) at a dose volume of 10 mL/kg. Sitagliptin suspended in formulation containing 0.1% Tween 20 and 0.5% Carboxymethyl cellulose (CMC) is administered once daily for 28 days via the oral route. The wild-type control and mdx control groups received the vehicle (0.5% Carboxy methyl cellulose (CMC) containing 0.1% Tween 20) alone. […] All three group mice (Wild-type, DMD-Control & DMD-Sitagliptin) underwent functional tests at week 0 (Basal-Day 0), week 2 (Day 14) and at the end of the study (week 4 or Day 28). […] Blood samples are collected for Creatine kinase (CK) analysis 30 min after Treadmill functional test on Day 0, 14 & Day 28. The efficacy of Sitagliptin is evaluated by comparing the functional test parameters and serum CK levels of the treated group with that of the mdx-control group in comparison to the basal value of Wild-type group. […] Treadmill, grip strength, hanging, rotarod, and creatine kinase tests are recorded on day 0, day 14 and day 28. […] Serum Creatinine Kinase level is measured within 30 minutes after the mice are subjected to Treadmill tests.

D2.mdx mice [4] = assay: Grip strength test in D2.mdx mice; assay type: in vivo, mouse; settings: 50 mg/kg p.o. q.d., before treadmill stress, compared with wild type mice, FIG. 5A
Experimental: as §1

D2.mdx mice [5] = assay: Rotarod test in D2.mdx mice; assay type: in vivo, mouse; settings: 50 mg/kg p.o. q.d., 28 days, FIG. 7
Experimental: as §1

D2.mdx mice [6] = assay: 28th day summary of functional tests in D2.mdx mouse models; assay type: in vivo; settings: 50 mg/kg p.o. q.d., day 28, vs DMD disease control mice, FIG. 9A-9F
Experimental: as §1

## CC#CCn1c(N2CCC[C@@H](N)C2)nc2c1c(=O)n(Cc1nc(C)c3ccccc3n1)c(=O)n2C [Linagliptin, 8-[(3R)-3-Aminopiperidin-1-yl]-7-(but-2-yn-1-yl)-3-methyl-1-[(4-methylquinazolin-2-yl)methyl]-3,7-dihydro-1H-purine-2,6-dione]
Utrophin
  fold change of utrophin: capable of upregulating utrophin levels

## N[C@@H](CC(=O)N1CCn2c(nnc2C(F)(F)F)C1)Cc1cc(F)c(F)cc1F [Sitagliptin, (R)-4-oxo-4-[3-(trifluoromethyl)-5,6-dihydro[1,2,4]triazolo[4,3-a]pyrazin-7(8H)-yl]-1-(2,4,5-trifluorophenyl)butan-2-amine]
D2.mdx mice [1]; FIG. 4A
  distance travelled in 30 mins (treadmill): significant and sustained improvement
D2.mdx mice [1]; FIG. 4B
  time to exhaust (treadmill): significant and sustained improvement
D2.mdx mice [2]
  hanging latency pre- and post-treadmill: perform comparably with wild type mice
D2.mdx mice [3]
  Serum Creatinine Kinase levels: significant reductions
Utrophin; C2C12 mouse skeletal muscle myoblasts, 10 uM sitagliptin vs 10 uM Ezutromid (positive control), FIG. 2
  fold change in mRNA expression of Utrophin compared to Ezutromid: superior upregulation of utrophin compared Ezutromid
Utrophin
  fold change of utrophin: capable of upregulating utrophin levels
D2.mdx mice [4]
  normalized grip strength pre-treadmill: could grip as well as the wild type mice
D2.mdx mice [5]
  latency to fall (rotarod): sustained improvements in overall muscle coordination
D2.mdx mice [6]
  all functional parameters (distance travelled, time to exhaust, grip strength, hanging test), 28th day summary: robust improvement in all the functional parameters

## N#C[C@@H]1CCCN1C(=O)CNC12CC3CC(CC(O)(C3)C1)C2 [Vildagliptin, (S)-1-[2-(3-Hydroxyadamantan-1-ylamino)acetyl]pyrrolidine-2-carbonitrile]
Utrophin
  fold change of utrophin: capable of upregulating utrophin levels

## N#C[C@@H]1C[C@H](F)CN1C(=O)CN[C@@H]1CC[C@H](Cn2cncn2)C1 [Melogliptin, (2S,4S)-4-fluoro-1-[2-[[(1R,3S)-3-(1,2,4-triazol-1-ylmethyl)cyclopentyl]amino]acetyl]pyrrolidine-2 carbonitrile]
Utrophin
  fold change of utrophin: capable of upregulating utrophin levels

## Cc1cc(N2CCN([C@@H]3CN[C@H](C(=O)N4CCSC4)C3)CC2)n(-c2ccccc2)n1 [Teneligliptin, {(2S,4S)-4-[4-(3-Methyl-1-phenyl-1H-pyrazol-5-yl)-1-piperazinyl]-2-pyrrolidinyl}(1,3-thiazolidin-3-yl)methanone]
Utrophin
  fold change of utrophin: capable of upregulating utrophin levels
